In patent US8975282B2, “Substituted pyrazolone compounds and methods of use” (Calitor Sciences, LLC, priority 2012, dated 2015):
Where two headings read alike, the source gives them in different places.

Assays:
c-Met (h) = c-Met (h) (Homo sapiens (Human), UniProt P08581); test: KINOMEscan competition binding assay, c-Met (h)
[1] = Pharmacokinetics after intravenous and oral administration in rats; assay type: in vivo, rat; conditions: for Cl/F / AUC(0-t) / half-life / Vd: iv dosing; for F: oral bioavailability; for AUC(0-t) / half-life / Vd: rat, plasma; for Vd: read-out: Vss
Procedure: The compounds disclosed herein are assessed in pharmacokinetic studies in mice, rats, dogs or monkeys. The compounds are administered as a water solution, 2% HPMC+1% TWEEN®80 in water solution, 5% DMSO+5% solutol in saline, 4% MC suspension or capsule. For the intravenous administration, the animals are generally given at 1 or 2 mg/kg dose. For the oral (p.o.) dosing, mice and rats are generally given 5 or 10 mg/kg dose, and dogs and monkeys are generally given 10 mg/kg dose. The blood samples (0.3 mL) are drawn at 0.25, 0.5, 1.0, 2.0, 3.0, 4.0, 6.0, 8.0, 12 and 24 h time points or 0.083, 0.25, 0.5, 1.0, 2.0, 4.0, 6.0, 8.0 and 24 h time points and centrifuged at 3,000 or 4000 rpm for 2 to 10 min. The plasma solutions are collected, stored at −20° C. or -70° C. until analyzed by LC/MS/MS as described above.

U87MG glioblastoma cells = test: U87MG tumor xenograft model, tumor growth inhibition; assay type: in vivo; conditions: nude mice, oral gavage once a day, 12 days
Procedure: The efficacy of compounds disclosed herein was evaluated in a standard murine model of tumorigenesis. Human tumor cells (U87MG glioblastoma cells from ATCC) were expended in culture, harvested, and injected subcutaneously onto the rear flank of 6-7 week old female athymic nude mice (BALB/cA nu/nu, Hunan SLAC Laboratory Animal, Co.) (n=6-10 for vehicle group and for each dosing group). When tumors reached a volume of 100-250 mm^3, animals were randomly divided into vehicle control (for example, 5% DMSO+70% Captisol® (30%), 7% HCl (pH1), 18% Captisol® (30%); or 7% DMSO, 7% HCl (pH1), 70% Captisol® (30%), 16% Captisol® (30%), or the like) and compound groups. Subsequent administration of compound by oral gavage begins anywhere from day 0 to day 15 post tumor cell challenge and generally continues with once a day for the duration of the experiment.
Progression of tumor growth is assessed by tumor volumes and recorded as a function of time. The long (L) and short (W) axes of the subcutaneous tumors were measured with calipers twice weekly, and the tumor volume (TV) calculated as (L×W^2)/2). TGI was calculated from the difference between the median tumor volumes of vehicle-treated and drug-treated mice, expressed as a percentage of the median tumor volume of the vehicle-treated control group, by the following relation:
[formula] Initial statistical analysis is done by repeated measures analysis of variance (RMANOVA), followed by Scheffe psot hoc testing for multiple comparisons. Vehicle alone (5% DMSO+70% Captisol® (30%), 7% HCl (pH1), 18% Captisol® (30%); or 7% DMSO, 7% HCl (pH1), 70% Captisol® (30%), 16% Captisol® (30%), or the like) is the negative control.

[2] = Compound stability in rat liver microsomes; assay type: in vitro ADME; conditions: for stability / metabolism in rat liver microsomes (in words): incubated in rat liver microsomes; for half-life at 5 μM / CLint scaled at 5 μM: pH 7.4, rat liver microsomes; for half-life at 5 μM: 0.5 mg protein/mL, compound 5 μM, NADPH 1.0 mM, 37° C.; for CLint scaled at 5 μM: in vivo CLint extrapolated
Procedure: Human or rat liver microsomes incubations were conducted in duplicate in polypropylene tubes. The typical incubation mixtures consisted of human or rat liver microsomes (0.5 mg protein/mL), compounds of interest (5 μM) and NADPH (1.0 mM) in a total volume of 200 μL, potassium phosphate buffer (PBS, 100 mM, pH 7.4). Compounds were dissolved in DMSO and diluted with PBS such that the final concentration of DMSO was 0.05%. The enzymatic reactions were commenced with the addition of protein after a 3-min preincubation and incubated in a water bath open to the air at 37° C. Reactions were terminated at various time points (0, 5, 10, 15, 30, 60 min) by adding equal volume of ice-cold acetonitrile. The samples were stored at −80° C. until LC/MS/MS assays.
The concentrations of compounds in the incubation mixtures of human or rat liver microsomes were determined by a LC/MS/MS method. The ranges of the linearity in the concentration range were determined for each tested compounds.
A parallel incubation was performed using denatured microsomes as the negative control, and reactions were terminated at various time points (0, 15, 60 min) after incubation at 37° C.
Dextromethorphan (70 μM) was selected as the positive control, and reactions were terminated at various time points (0, 5, 10, 15, 30, 60 min) after incubation at 37° C. Both positive and negative control samples were included in each assay to ensure the integrity of the microsomal incubation system.
The concentrations of compounds in human or rat liver microsome incubations were plotted as a percentage of the relevant zero time point control for each reaction. The in vivo CLint were extrapolated (ref: Naritomi Y, Terashita S, Kimura S, Suzuki A, Kagayama A, Sugiyama Y. Prediction of human hepatic clearance from in vivo animal experiments and in vitro metabolic studies with liver microsomes from animals and humans. Drug Metabolism and Disposition 2001, 29: 1316-1324.)

KDR (h) = KDR (h) (Homo sapiens (Human), UniProt P35968); test: KINOMEscan competition binding assay, KDR (h)
Sequence of KDR (h) (P35968 20-1356): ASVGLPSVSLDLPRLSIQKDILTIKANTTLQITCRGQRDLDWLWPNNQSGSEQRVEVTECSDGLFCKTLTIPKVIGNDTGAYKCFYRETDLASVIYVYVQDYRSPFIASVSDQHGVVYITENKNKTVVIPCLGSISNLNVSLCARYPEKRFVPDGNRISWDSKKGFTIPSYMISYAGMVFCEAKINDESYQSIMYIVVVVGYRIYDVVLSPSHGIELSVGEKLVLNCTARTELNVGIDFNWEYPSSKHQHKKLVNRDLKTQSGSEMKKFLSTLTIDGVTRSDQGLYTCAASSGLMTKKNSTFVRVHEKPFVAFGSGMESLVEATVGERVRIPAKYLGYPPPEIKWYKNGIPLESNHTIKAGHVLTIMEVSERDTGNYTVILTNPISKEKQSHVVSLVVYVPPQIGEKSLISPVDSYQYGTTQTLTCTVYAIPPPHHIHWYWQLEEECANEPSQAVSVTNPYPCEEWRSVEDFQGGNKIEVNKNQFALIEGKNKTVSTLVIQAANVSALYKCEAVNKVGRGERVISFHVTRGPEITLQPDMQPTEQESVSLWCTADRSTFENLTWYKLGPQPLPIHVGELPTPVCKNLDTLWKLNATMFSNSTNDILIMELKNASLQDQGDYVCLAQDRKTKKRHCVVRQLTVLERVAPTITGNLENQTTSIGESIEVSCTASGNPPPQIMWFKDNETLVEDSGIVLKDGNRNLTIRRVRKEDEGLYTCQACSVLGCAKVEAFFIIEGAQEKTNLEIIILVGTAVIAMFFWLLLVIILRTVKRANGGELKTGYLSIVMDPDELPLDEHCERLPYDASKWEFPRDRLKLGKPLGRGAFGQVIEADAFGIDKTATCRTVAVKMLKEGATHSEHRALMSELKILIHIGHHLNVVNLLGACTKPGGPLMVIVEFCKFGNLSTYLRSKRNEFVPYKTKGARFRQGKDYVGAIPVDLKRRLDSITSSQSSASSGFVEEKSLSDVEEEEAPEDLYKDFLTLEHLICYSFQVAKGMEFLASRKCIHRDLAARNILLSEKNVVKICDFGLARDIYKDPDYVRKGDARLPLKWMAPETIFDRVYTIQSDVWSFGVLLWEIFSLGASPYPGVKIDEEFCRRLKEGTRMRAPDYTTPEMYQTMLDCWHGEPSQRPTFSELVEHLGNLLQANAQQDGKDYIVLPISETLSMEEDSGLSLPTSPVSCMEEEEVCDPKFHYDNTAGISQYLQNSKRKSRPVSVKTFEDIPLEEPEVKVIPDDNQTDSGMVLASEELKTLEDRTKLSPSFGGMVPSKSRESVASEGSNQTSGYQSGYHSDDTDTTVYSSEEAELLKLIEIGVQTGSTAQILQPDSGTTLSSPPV

Sequence of c-Met (h) (P08581 25-1390): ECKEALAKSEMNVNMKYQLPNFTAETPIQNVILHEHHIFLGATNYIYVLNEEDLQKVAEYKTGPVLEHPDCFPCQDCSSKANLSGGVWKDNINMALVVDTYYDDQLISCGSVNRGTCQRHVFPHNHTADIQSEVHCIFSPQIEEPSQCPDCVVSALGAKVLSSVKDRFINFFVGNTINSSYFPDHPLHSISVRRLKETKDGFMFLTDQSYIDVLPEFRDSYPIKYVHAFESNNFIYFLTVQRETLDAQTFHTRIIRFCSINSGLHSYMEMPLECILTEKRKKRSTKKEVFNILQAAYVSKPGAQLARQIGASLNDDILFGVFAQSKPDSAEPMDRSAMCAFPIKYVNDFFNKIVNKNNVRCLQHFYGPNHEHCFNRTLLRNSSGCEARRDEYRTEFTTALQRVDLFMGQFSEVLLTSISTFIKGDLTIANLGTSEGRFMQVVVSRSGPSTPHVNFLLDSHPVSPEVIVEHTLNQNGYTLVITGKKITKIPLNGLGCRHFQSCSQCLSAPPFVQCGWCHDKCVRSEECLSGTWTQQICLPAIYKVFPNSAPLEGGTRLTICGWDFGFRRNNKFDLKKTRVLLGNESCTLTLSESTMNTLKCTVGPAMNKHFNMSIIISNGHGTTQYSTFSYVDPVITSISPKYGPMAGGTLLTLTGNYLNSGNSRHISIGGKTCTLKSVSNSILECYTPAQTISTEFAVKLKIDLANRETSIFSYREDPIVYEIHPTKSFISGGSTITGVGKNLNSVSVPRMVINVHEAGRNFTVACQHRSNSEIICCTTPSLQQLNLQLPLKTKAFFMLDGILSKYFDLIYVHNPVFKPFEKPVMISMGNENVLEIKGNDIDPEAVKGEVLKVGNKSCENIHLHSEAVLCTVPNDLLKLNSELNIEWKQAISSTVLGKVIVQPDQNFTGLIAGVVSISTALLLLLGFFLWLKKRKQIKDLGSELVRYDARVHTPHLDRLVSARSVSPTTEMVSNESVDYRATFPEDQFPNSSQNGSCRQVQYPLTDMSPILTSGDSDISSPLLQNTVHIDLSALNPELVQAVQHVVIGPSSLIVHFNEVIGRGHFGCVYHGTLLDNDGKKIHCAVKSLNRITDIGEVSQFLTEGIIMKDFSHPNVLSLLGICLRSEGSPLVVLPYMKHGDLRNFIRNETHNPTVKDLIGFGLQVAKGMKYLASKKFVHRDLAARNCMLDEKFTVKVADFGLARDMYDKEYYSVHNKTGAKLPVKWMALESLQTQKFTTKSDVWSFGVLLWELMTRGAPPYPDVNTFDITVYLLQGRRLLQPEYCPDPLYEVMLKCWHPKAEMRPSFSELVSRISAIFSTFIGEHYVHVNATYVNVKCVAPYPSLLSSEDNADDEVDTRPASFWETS

Kd (c-Met (h))	Cl/F ([1]; dose 2 mg/kg)	F ([1]; iv dose 2 mg/kg)	AUC(0-t) ([1]; dose 2 mg/kg)	half-life ([1]; dose 2 mg/kg)	Vd ([1]; dose 2 mg/kg)	stability / metabolism in rat liver microsomes (in words) [2]	half-life at 5 μM [2]	CLint scaled at 5 μM [2]	Kd (KDR (h))	Cl/F ([1]; dose 1 mg/kg)	F ([1]; iv dose 1 mg/kg)	AUC(0-t) ([1]; dose 1 mg/kg)	half-life ([1]; dose 1 mg/kg)	Vd ([1]; dose 1 mg/kg)	SMILES	TGI% (on last day of dosing) (U87MG glioblastoma cells; 6 mg/kg)	TGI% (on last day of dosing) (U87MG glioblastoma cells; 30 mg/kg)
2.4 nM	0.83 mL/min/kg	85.88%	38300 ng·h/mL	4.06 h	0.27 L/kg	little metabolized	11.7 h	3.53 mL/min/kg	3.2 nM	–	–	–	–	–	Cc1c(C(=O)Nc2ccc(Oc3ccnc(NC(=O)C4CC4)c3)cn2)c(=O)n(-c2ccccc2)n1C [Example 8, N-(5-((2-(cyclopropanecarboxamido)pyridin-4-yl)oxy)pyridin-2-yl)-1,5-dimethyl-3-oxo-2-phenyl-2,3-dihydro-1H-pyrazole-4-carboxamide]	32%	78%
200 nM	–	–	–	–	–	–	–	–	450 nM	–	–	–	–	–	Cc1c(C(=O)Nc2ccc(Oc3ccnc(C(N)=O)c3)c(F)c2)c(=O)n(-c2ccccc2)n1C [Example 10, 4-(4-(1,5-dimethyl-3-oxo-2-phenyl-2,3-dihydro-1H-pyrazole-4-carboxamido)-2-fluorophenoxy)picolinamide]	–	–
0.5 nM	–	–	–	–	–	little metabolized	3.93 h	10.5 mL/min/kg	6.3 nM	0.83 mL/min/kg	133.5%	14000 ng·h/mL	4.61 h	0.34 L/kg	Cc1c(C(=O)Nc2ccc(Oc3ccnc(NC(=O)C4CC4)c3)c(F)c2)c(=O)n(-c2ccccc2)n1C [Example 11, N-(4-((2-(cyclopropanecarboxamido)pyridin-4-yl)oxy)-3-fluorophenyl)-1,5-dimethyl-3-oxo-2-phenyl-2,3-dihydro-1H-pyrazole-4-carboxamide]	56%	97%
0.21 nM	–	–	–	–	–	little metabolized	7.06 h	5.86 mL/min/kg	2.9 nM	0.67 mL/min/kg	94.49%	23400 ng·h/mL	5.95 h	0.31 L/kg	Cc1c(C(=O)Nc2ccc(Oc3ccnc(NC(=O)C4CC4)c3)cc2)c(=O)n(-c2ccccc2)n1C [Example 16, N-(4-((2-(cyclopropanecarboxamido)pyridin-4-yl)oxy)phenyl)-1,5-dimethyl-3-oxo-2-phenyl-2,3-dihydro-1H-pyrazole-4-carboxamide]	–	–
